Data taken from patent US10054581B1, “Inhibitors of notch signaling pathway and use thereof in treatment of cancers” (Ecole Polytechnique Federale de Lausanne (EPFL), priority 2011, dated 2018).
Entries after “also recorded” stand apart in the source; their conditions may differ.

Key:
[1] = test system: nRas driven melanoma cell lines; test: Alamar blue proliferation assay, nRas driven melanoma cells; type: cell-based, human; details: 10 μM, 4 days
Method: Human T-ALL cell lines RPMI 8402 and KOPTK1, and pancreatic cancer cell line PANC1 as well as nRas driven melanoma cells were seeded in a 96 well plate and treated with 10 μM concentration of 6-(4-Tert-Butylphenoxy)Pyridin-3-Amine (I3) and DAPT for several days. Their growth inhibitory effects were compared with cells treated with equal amount of DMSO. Using Alamar blue assay, the growth kinetics of RPMI 8402 and KOPTK1 were followed for upto 6 days, while PANC1 and nRas melanoma cells were monitored for 4 days. 6-(4-Tert-Butylphenoxy)Pyridin-3-Amine (I3) treatment of RPMI 8402, KOPTK1. […] Statistical analyses were done using student's t.test. *=p value<0.05. ns=not significant.
Alamarblue® proliferation assays were performed to determine the growth kinetics of Notch inhibitor treated cells. Alamar Blue® consists of a cell permeable substrate resazurin. In metabolically active and proliferating cells, resazurin is converted to resorufin due to an intrinsic reducing power of live cells and produces a red fluorescence. Therefore production of resorufin serves as an indicator of the viability of the cell population.
Proliferation assays were performed by seeding 5000 cells/well in a 96 well plate. Cells were treated with DMSO or Notch inhibitors for different time intervals. […] Alamarblue readout was taken using Tecan F500 (Tecan) multiplate reader. […]

[2] = test system: CUTL1; test: Annexin V apoptosis, CUTL1; type: cell-based, human; details: 10 μM, 7 days
Method: (§1) FIGS. 6A-6D show 6-(4-Tert-Butylphenoxy)Pyridin-3-Amine (I3) induces G0/G1 cell cycle arrest and apoptosis in human T cell acute lymphoblastic leukemia cell lines and human breast cancer cell line HCC1187. […] Percentage of Annexin V positive (apoptotic) cell population was measured using flow cytometry.
To quantitate the percentage of apoptotic cells, AnnexinV and 7AAD staining was performed. Thymic cells were suspended in 300 μl of 1× AnnexinV binding buffer (BD Biosciences, San Diego, USA) and incubated with 10 μl of AnnexinV-Cy5 antibody and 10 μl of 7AAD (BD Biosciences, San Diego, USA). Samples were incubated for 15 minutes at room temperature. FACS was performed with in one hour of antibody staining.
This 6-(4-Tert-Butylphenoxy)Pyridin-3-Amine (I3) mediated proliferative arrest could be due to induction of apoptosis or cell cycle arrest during different phases of cell cycle. […] Therefore to further elucidate the mechanisms responsible for 6-(4-Tert-Butylphenoxy)Pyridin-3-Amine (I3) mediated proliferative arrest cell cycle and apoptosis analyses were carried out. […] To investigate cell death, Annexin V staining was performed and proportion of apoptotic (AnnexinV positive) cell population was determined by flow cytometry analyses after 7 days of treatment.

[3] = test system: Hedgehog signalling (Gli1); test: Hedgehog signalling Gli1 luciferase assay in HeLa cells; type: cell-based; details: HeLa cells with Gli1 and Gli1 binding site luciferase
Description: Using a similar strategy, Hedgehog signalling was activated in HeLa cells by introducing the Gli1 transcription factor and pathway activation was monitored using a promoter sequence containing Gli1 binding sites driving the luciferase expression. […] However it still needs to be determined whether the resistance of Wnt and Hedgehog signalling towards 6-(4-Tert-Butylphenoxy)Pyridin-3-Amine (I3) is cell type specific or whether it is a general phenomenon.

[4] = test system: RPMI8402; test: Cell cycle analysis (Ki67 and Hoechst stain), RPMI8402; type: cell-based, human; details: 10 μM
Method: as §1
In addition to induction of apoptosis, the proliferative arrest observed in 6-(4-Tert-Butylphenoxy)Pyridin-3-Amine (I3) treated human leukemic cell lines and breast cancer cell line also appears to be due to cell cycle arrest in G0/G1 phase of the cell cycle. Leukemic cell lines (RPMI8402, KOPTK1 and TALL1) and breast cancer cell lines were treated with 6-(4-Tert-Butylphenoxy)Pyridin-3-Amine (I3) for 48 hours and cell cycle status was determined using Ki67 and Hoechst stain.

Question: How did the “proliferation (Alamar blue)” value [1] turn out when `CC(C)(C)c1ccc(Oc2ccc(N)cn2)cc1` [I3, 6-(4-Tert-Butylphenoxy)Pyridin-3-Amine] was run?
Answer: The value was “significantly inhibited the growth; also recorded: caused a significant reduction in their growth potential”.

Question: And the “apoptosis (Annexin V positive cells)” value [2]?
Answer: Its value is “induces significant apoptosis”.

Question: And the Hedgehog signalling [3]?
Answer: Its Hedgehog signalling is “did not inhibit the Hedgehog signalling cascade”.

Question: And the cell cycle status ([4]; 48 hours)?
Answer: The cell cycle status was “induces an arrest in the G0/G1 phase of the cell cycle”.

Question: What about the “increase in cells arrested in G0/G1 phase of the cell cycle” value ([4]; stated jointly for RPMI8402, KOPTK1 and TALL1) of the same compound?
Answer: The value was 20-30%.
